Measurements from patent US20250066389A1, “HETEROCYCLIC AMIDES AND METHODS OF USING THE SAME” (Rgenta Therapeutics, Inc., priority 2021, published 2025).
Where a name gives a salt, the structure may show the parent alone.

System: PMS1
Experiment: Mini-Gene Reporter Assay—PMS1 (firefly luciferase mini-gene reporter transiently transfected into HEK293 cells)
Format: cell-based
Details: Homo sapiens, mini-gene firefly luciferase reporter in HEK293 cells; for activation at 5 µM: read-out: PMS1 % Effect at 5 uM
Method in brief: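 HEK293 cells transiently transfected with a mini-gene construct (skipped exon with flanking introns/exons fused to firefly luciferase, pcDNA3.1) are incubated with compounds in duplicate. Exon inclusion raises luminescence; EC50 fitted by Levenberg-Marquardt; effect also scored at 5 μM.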

IC50 [nM] | Compound | activation at 5 µM [%]
– | CCOc1cc2nn(C)cc2cc1C(=O)Nc1cnc(NCC2COCCN2)cn1 (centres unmarked) [Compound 349] | < 50
– | CCOc1cc2nn(C)cc2cc1C(=O)Nc1cnc(N2CCCC(C)(CN)C2)nc1 (centres unmarked) [Compound 435] | < 50
– | CCOc1cn2nc(C)cc2cc1C(=O)Nc1cnc(N(C)C2CCNCC2)cn1 [Compound 558] | > 75
– | CCOc1cc2nn(C)cc2cc1C(=O)Nc1cnc(N2CCC3(CCNCC3)C2)cn1 [Compound 352] | > 75
– | CCOc1cc2nn(C)cc2cc1C(=O)Nc1cnc(NC[C@H]2CC[C@H](CNC)CC2)nc1 [Compound 400] | < 50
1000 to 10000 | CCOc1cc2nc(C)cn2cc1C(=O)Nc1ccc(N2CCC3(CCCNC3)C2)nn1 (centres unmarked) [Compound 265] | –
– | CCOc1cc2nn(C)cc2cc1C(=O)Nc1cnc(N2CC(N)C(C)(C)C2)cn1 (centres unmarked) [Compound 326] | > 75
1000 to 10000 | CCOc1nc2nc(C)cn2cc1C(=O)Nc1ccc(N2CCNC3(CC3)C2)nn1 [Compound 725, N-(6-(4,7-diazaspiro[2.5]octan-7-yl)pyridazin-3-yl)-7-ethoxy-2-methylimidazo[1,2-a]pyrimidine-6-carboxamide formic acid] | –
< 1000 | COc1cc2nc(C)cn2cc1C(=O)Nc1ccc(N2CCNCC2)cn1 [Compound 110, 7-methoxy-2-methyl-N-(5-(piperazin-1-yl)pyridin-2-yl)imidazo[1,2-a]pyridine-6-carboxamide HCl Salt] | –
1000 to 10000 | CCOc1cc2nc(C)cn2cc1C(=O)Nc1ccc(N2CCC3(CCNC3)CC2)nn1 [Compound 275] | –
– | CCOc1cc2nn(C)cc2cc1C(=O)Nc1cnc(NCc2c(C)nn3c2CNCC3)nc1 [Compound 403] | < 50
– | CCOc1cc2nn(C)cc2cc1C(=O)Nc1cnc(NCCC2(O)CNC2)nc1 [Compound 447] | < 50
– | CCOc1cc2nn(C)cc2cc1C(=O)Nc1cnc(N2CC(O)(C3CCCN3)C2)cn1 (centres unmarked) [Compound 309] | > 75
– | CCOc1cn2nc(C)cc2cc1C(=O)Nc1ccc(N2CCNC(C)(C)C2)nn1 [Compound 755, N-(6-(3,3-dimethylpiperazin-1-yl)pyridazin-3-yl)-6-ethoxy-2-methylpyrazolo[1,5-a]pyridine-5-carboxamide hydrochloride] | > 75
– | CCOc1cn2nc(C)cc2cc1C(=O)Nc1cnc(N2CCCCC3(CCNC3)C2)cn1 (centres unmarked) [Compound 499] | < 50
– | CCOc1cc2nn(C)cc2cc1C(=O)Nc1cnc(NC[C@@H]2CC(F)(F)CN2)nc1 [Compound 443] | < 50
– | CCOc1cn2nc(C)cc2cc1C(=O)Nc1cnc(NC(CNC)Cc2ccccc2)cn1 (centres unmarked) [Compound 518] | < 50
– | CCOc1cn2nc(C)cc2cc1C(=O)Nc1cnc(N2CCC3CCNCC3C2)nc1 (centres unmarked) [Compound 611] | < 50
– | CCOc1cn2nc(C)cc2cc1C(=O)Nc1cnc(N2CCCC(NC)C2)nc1 (centres unmarked) [Compound 591] | < 50
– | CCOc1cn2nc(C)cc2cc1C(=O)Nc1cnc(N2CCC(COC3CCNC3)CC2)nc1 (centres unmarked) [Compound 618] | < 50
1000 to 10000 | Cc1cn2cc(C(=O)Nc3ccc(N4CCNCC4)cn3)c(OC(C)C)cc2n1 [Compound 129, 7-isopropoxy-2-methyl-N-(5-(piperazin-1-yl)pyridin-2-yl)imidazo[1,2-a]pyridine-6-carboxamide hydrochloride] | –
1000 to 10000 | CCOc1cc2nn(C)cc2cc1C(=O)Nc1ccc(C2CCNCC2)nn1 [Compound 728, 6-ethoxy-2-methyl-N-(6-(piperidin-4-yl)pyridazin-3-yl)-2H-indazole-5-carboxamide hydrochloride] | –

IC50 [nM] | Compound | activation at 5 µM [%]
– | CCOc1cc2nc(C)cn2cc1C(=O)Nc1cnc(N2CCC(NC)CC2)cn1 [Compound 691] | > 75
– | CCOc1cc2nn(C)cc2cc1C(=O)Nc1cnc(N[C@@H]2CCCNC2)cn1 [Compound 377] | 50 to 75
< 1000 | CCOc1cc2nc(C)cn2cc1C(=O)Nc1ccc(N2CCN[C@@H](C)C2)cc1F [Compound 702, 7-ethoxy-N-2-fluoro-4-[(3S)-3-methylpiperazin-1-yl]phenyl-2-methylimidazo[1,2-a]pyridine-6-carboxamide] | –
– | CCOc1cc2nc(C)cn2cc1C(=O)Nc1ccc(N2CC3CNCC3C2)nn1 (centres unmarked) [Compound 748, (7-ethoxy-N-(6-(hexahydropyrrolo[3,4-c]pyrrol-2(1H)-yl)pyridazin-3-yl)-2-methylimidazo[1,2-a]pyridine-6-carboxamide formate] | > 75
– | CCOc1cc2nn(C)cc2cc1C(=O)Nc1cnc(N2CCN[C@@H](C(C)C)C2)cn1 [Compound 360] | > 75
– | CCOc1cc2nn(C)cc2cc1C(=O)Nc1cnc(N2C[C@@H](F)C[C@H]2CN)nc1 [Compound 427] | < 50
– | Cc1cn2cc(C(=O)Nc3ccc(N4CCNCC4)nc3)ncc2n1 [Compound 103, 2-methyl-N-(6-(piperazin-1-yl)pyridin-3-yl)imidazo[1,2-a]pyrazine-6-carboxamide] | < 50
1000 to 10000 | CCOc1cc2nc(C)cn2cc1C(=O)Nc1ccc(N2CCN(C)[C@@H](C)C2)nn1 [Compound 737, (S)—N-(6-(3,4-dimethylpiperazin-1-yl)pyridazin-3-yl)-7-ethoxy-2-methylimidazo[1,2-a]pyridine-6-carboxamide formate] | –
– | Cc1cn2cc(C(=O)Nc3ccc(N4CCNCC4)cc3)ncc2n1 [Compound 102, 2-methyl-N-(4-(piperazin-1-yl)phenyl)imidazo[1,2-a]pyrazine-6-carboxamide] | < 50
– | CCOc1cc2nn(C)cc2cc1C(=O)Nc1cnc(N2CCC(N)C2)cn1 (centres unmarked) [Compound 372] | > 75
– | CCOc1cc2nn(C)cc2cc1C(=O)Nc1cnc(NCC2CC3(CCNC3)CO2)nc1 (centres unmarked) [Compound 405] | < 50
– | CCOc1cc2nc(C)cn2cc1C(=O)Nc1cnc(N[C@H]2CCNC2)cn1 [Compound 696] | 50 to 75
< 1000 | CCOc1cc2nc(C)cn2cc1C(=O)Nc1ccc(N2CCNCC2)cn1 [Compound 130, 7-ethoxy-2-methyl-N-(5-(piperazin-1-yl)pyridin-2-yl) imidazo[1,2-a]pyridine-6-carboxamide hydrochloride] | –
– | CCOc1cn2nc(C)cc2cc1C(=O)Nc1cnc(N2CCC(CC[C@@H]3CCCN3)CC2)nc1 [Compound 615] | < 50
– | CCOc1cc2nc(C)cn2cc1C(=O)Nc1cnc(N2CCC3(CNCCO3)C2)cn1 (centres unmarked) [Compound 673] | < 50
– | CCOc1cn2nc(C)cc2cc1C(=O)Nc1cnc(N2CCCC2CNC)cn1 (centres unmarked) [Compound 525] | 50 to 75
– | CCOc1cc2nn(C)cc2cc1C(=O)Nc1cnc(N2CC3(CNCCO3)C2)nc1 [Compound 436] | < 50
1000 to 10000 | CCOc1cc2nc(C)cn2cc1C(=O)Nc1ccc(N2CCNC(CC(F)(F)F)C2)nn1 (centres unmarked) [Compound 231] | –
– | CCOc1cc2nn(C)cc2cc1C(=O)Nc1cnc(N2CCC[C@H]3CNC[C@H]32)cn1 [Compound 340] | 50 to 75
< 1000 | CCOc1cc2nc(C)cn2cc1C(=O)Nc1ccc(N2CCNC(CC)C2)nn1 (centres unmarked) [Compound 279] | –
– | CCOc1cc2nn(C)cc2cc1C(=O)Nc1cnc(NC[C@]2(F)C[C@@H](N)C2)nc1 [Compound 392] | < 50
– | CCOc1cc2nn(C)cc2cc1C(=O)Nc1ccc(N2CCNCC2)nn1 [Compound 749, 6-ethoxy-2-methyl-N-(6-(piperazin-1-yl)pyridazin-3-yl)-2H-indazole-5-carboxamide hydrochloride] | > 75
